Source: article PMC10945555, “Improving Activity of New Arylurea Agents against Multidrug-Resistant and Biofilm-Producing Staphylococcus epidermidis” (ACS Medicinal Chemistry Letters, 2024)
In brackets after ≈: the same amount, converted by molar mass. Read-outs that look alike come from different tables or passages of the source.

What was measured:
[1] = system: Staphylococcus aureus ATCC BAA-976; assay: MIC, broth microdilution, MDR/BPSA reference strain; assay type: cell-based; conditions: ATCCBAA976; Staphylococcus aureus ATCC BAA-976; read-out: MIC MDR/BPSA
Excerpt: These strains included susceptible, multidrug-resistant, and biofilm-producing strains of S. epidermidis and S. aureus (MSSE, MDR/BPSE, and MDR/BPSA, respectively). The cornerstone antibiotic linezolid served as a positive control (Table 1). The impact of structural modifications at the aryloxy fragment and the aromatic moiety bound to the propyl linker on the inhibitory activity was initially investigated. […] Further optimization focused on evaluating the impact of the type of substituent and its position on the arylsulfonamide fragment’s activity.
(§1) 2 Biological assay protocols
(§2) Microbiological tests were carried out under aseptic conditions in a laminar chamber of the 2nd […]
(§3) (BioTectum 1.2, Alchem Poland). The assessment of antimicrobial activity was carried out for final compounds in the form of free bases, soluble in DMSO (Merck, Germany), at the initial […]
(§4) concentration of 1 mg/mL. […]
were provided by Cayman Chemical, USA.
The activity of all newly synthesized compounds was tested in vitro on a panel of selected reference strains from the American Type Culture Collection (ATCC) of Gram-positive […]
(§5) 2.2 Effect of evaluated compounds on planktonic cells
(§6) The susceptibility of three reference bacterial strains (Staphylococcus epidermidis ATCC […]
(§7) Table S1) and 81 clinical MDR S. epidermidis (Table S2) to the tested compounds was assessed by determining the MIC value (Minimal Inhibitory Concentration) by microdilution in a liquid medium in 96-well flat-bottom cell culture plates (Nest Biotechnology Scientific, USA). The antibacterial properties of the compo unds were tested in the concentration range from 50 µg/mL to 0.1 µg/mL by making a series of double dilutions of the compound in liquid Mueller -Hinton II Broth Cation Adjusted (MHB II, BBL TM, USA) according to the European Committee on […]
(§8) Antimicrobial Susceptibility Testing guidelines (EUCAST).2,3 The determinations were performed twice. The MIC50 and MIC90 values were determined for each of the tested

[2] = system: clinical MDR Staphylococcus epidermidis isolates; assay: MIC, broth microdilution, 81 clinical MDR strains; assay type: cell-based; conditions: Staphylococcus epidermidis
Protocol: as §1, §2, §3, §4
were provided by Cayman Chemical, USA. […]
The antibacterial activity of selected compounds was also tested on a panel of 81 unrelated, multidrug -resistant clinical strains of Staphylococcus epidermidis from the own collection of the Department of Pharmaceutical Microbiology of the Jagiellonian University Medical College.
as §5, §6, §7, §8

CC(=O)NC[C@H]1CN(c2ccc(N3CCOCC3)c(F)c2)C(=O)O1 [linezolid, reference compound] showed an MIC [1] of 1.6 mg/L (≈ 4.74 µM), an MIC ([2]; clinical strain 1 (Table S2), read-out: MIC) of 1.6 mg/L (≈ 4.74 µM) and an MIC ([2]; clinical strain 2 (Table S2), read-out: MIC) of 1.6 mg/L (≈ 4.74 µM). For the same molecule, the MIC ([2]; clinical strain 3 (Table S2), read-out: MIC) was 1.6 mg/L (≈ 4.74 µM), the MIC ([2]; clinical strain 4 (Table S2), read-out: MIC) was 1.6 mg/L (≈ 4.74 µM) and the MIC ([2]; clinical strain 5 (Table S2), read-out: MIC) was 1.6 mg/L (≈ 4.74 µM). The MIC ([2]; clinical strain 6 (Table S2), read-out: MIC) was 1.6 mg/L (≈ 4.74 µM), the MIC ([2]; clinical strain 7 (Table S2), read-out: MIC) was 1.6 mg/L (≈ 4.74 µM) and the MIC ([2]; clinical strain 8 (Table S2), read-out: MIC) was 1.6 mg/L (≈ 4.74 µM). It also gave an MIC ([2]; clinical strain 9 (Table S2), read-out: MIC) of 1.6 mg/L (≈ 4.74 µM), an MIC ([2]; clinical strain 10 (Table S2), read-out: MIC) of 1.6 mg/L (≈ 4.74 µM) and an MIC ([2]; clinical strain 11 (Table S2), read-out: MIC) of 1.6 mg/L (≈ 4.74 µM). It also gave an MIC ([2]; clinical strain 12 (Table S2), read-out: MIC) of 0.8 mg/L (≈ 2.37 µM), an MIC ([2]; clinical strain 13 (Table S2), read-out: MIC) of 1.6 mg/L (≈ 4.74 µM) and an MIC ([2]; clinical strain 14 (Table S2), read-out: MIC) of 1.6 mg/L (≈ 4.74 µM). The MIC ([2]; clinical strain 15 (Table S2), read-out: MIC) was 1.6 mg/L (≈ 4.74 µM), the MIC ([2]; clinical strain 16 (Table S2), read-out: MIC) was 1.6 mg/L (≈ 4.74 µM) and the MIC ([2]; clinical strain 17 (Table S2), read-out: MIC) was 0.8 mg/L (≈ 2.37 µM). It also gave an MIC ([2]; clinical strain 18 (Table S2), read-out: MIC) of 0.8 mg/L (≈ 2.37 µM), an MIC ([2]; clinical strain 19 (Table S2), read-out: MIC) of 1.6 mg/L (≈ 4.74 µM) and an MIC ([2]; clinical strain 20 (Table S2), read-out: MIC) of 1.6 mg/L (≈ 4.74 µM). The MIC ([2]; clinical strain 21 (Table S2), read-out: MIC) was 1.6 mg/L (≈ 4.74 µM), the MIC ([2]; clinical strain 22 (Table S2), read-out: MIC) was 1.6 mg/L (≈ 4.74 µM) and the MIC ([2]; clinical strain 23 (Table S2), read-out: MIC) was 1.6 mg/L (≈ 4.74 µM). For the same molecule, the MIC ([2]; clinical strain 24 (Table S2), read-out: MIC) was 1.6 mg/L (≈ 4.74 µM), the MIC ([2]; clinical strain 25 (Table S2), read-out: MIC) was 1.6 mg/L (≈ 4.74 µM) and the MIC ([2]; clinical strain 26 (Table S2), read-out: MIC) was 0.8 mg/L (≈ 2.37 µM). The MIC ([2]; clinical strain 27 (Table S2), read-out: MIC) was 1.6 mg/L (≈ 4.74 µM), the MIC ([2]; clinical strain 28 (Table S2), read-out: MIC) was 1.6 mg/L (≈ 4.74 µM) and the MIC ([2]; clinical strain 29 (Table S2), read-out: MIC) was 0.8 mg/L (≈ 2.37 µM). It also gave an MIC ([2]; clinical strain 30 (Table S2), read-out: MIC) of 1.6 mg/L (≈ 4.74 µM), an MIC ([2]; clinical strain 31 (Table S2), read-out: MIC) of 1.6 mg/L (≈ 4.74 µM) and an MIC ([2]; clinical strain 32 (Table S2), read-out: MIC) of 1.6 mg/L (≈ 4.74 µM). It also gave an MIC ([2]; clinical strain 33 (Table S2), read-out: MIC) of 0.8 mg/L (≈ 2.37 µM), an MIC ([2]; clinical strain 34 (Table S2), read-out: MIC) of 1.6 mg/L (≈ 4.74 µM) and an MIC ([2]; clinical strain 35 (Table S2), read-out: MIC) of 1.6 mg/L (≈ 4.74 µM). For the same molecule, the MIC ([2]; clinical strain 36 (Table S2), read-out: MIC) was 0.8 mg/L (≈ 2.37 µM), the MIC ([2]; clinical strain 37 (Table S2), read-out: MIC) was 0.8 mg/L (≈ 2.37 µM) and the MIC ([2]; clinical strain 38 (Table S2), read-out: MIC) was 0.8 mg/L (≈ 2.37 µM). The MIC ([2]; clinical strain 39 (Table S2), read-out: MIC) was 0.8 mg/L (≈ 2.37 µM), the MIC ([2]; clinical strain 40 (Table S2), read-out: MIC) was 0.4 mg/L (≈ 1.19 µM) and the MIC ([2]; clinical strain 41 (Table S2), read-out: MIC) was 0.8 mg/L (≈ 2.37 µM). It also gave an MIC ([2]; clinical strain 42 (Table S2), read-out: MIC) of 1.6 mg/L (≈ 4.74 µM), an MIC ([2]; clinical strain 43 (Table S2), read-out: MIC) of 0.8 mg/L (≈ 2.37 µM) and an MIC ([2]; clinical strain 44 (Table S2), read-out: MIC) of 1.6 mg/L (≈ 4.74 µM). For the same molecule, the MIC ([2]; clinical strain 45 (Table S2), read-out: MIC) was 0.8 mg/L (≈ 2.37 µM), the MIC ([2]; clinical strain 46 (Table S2), read-out: MIC) was 1.6 mg/L (≈ 4.74 µM) and the MIC ([2]; clinical strain 47 (Table S2), read-out: MIC) was 0.8 mg/L (≈ 2.37 µM). It also gave an MIC ([2]; clinical strain 48 (Table S2), read-out: MIC) of 3.12 mg/L (≈ 9.26 µM), an MIC ([2]; clinical strain 49 (Table S2), read-out: MIC) of 0.2 mg/L (≈ 0.593 µM) and an MIC ([2]; clinical strain 50 (Table S2), read-out: MIC) of 0.2 mg/L (≈ 0.593 µM). The MIC ([2]; clinical strain 51 (Table S2), read-out: MIC) was 0.2 mg/L (≈ 0.593 µM), the MIC ([2]; clinical strain 52 (Table S2), read-out: MIC) was 0.4 mg/L (≈ 1.19 µM) and the MIC ([2]; clinical strain 53 (Table S2), read-out: MIC) was 0.4 mg/L (≈ 1.19 µM). The MIC ([2]; clinical strain 54 (Table S2), read-out: MIC) was 0.8 mg/L (≈ 2.37 µM), the MIC ([2]; clinical strain 55 (Table S2), read-out: MIC) was 0.8 mg/L (≈ 2.37 µM) and the MIC ([2]; clinical strain 56 (Table S2), read-out: MIC) was 0.8 mg/L (≈ 2.37 µM). It also gave an MIC ([2]; clinical strain 57 (Table S2), read-out: MIC) of 0.8 mg/L (≈ 2.37 µM), an MIC ([2]; clinical strain 58 (Table S2), read-out: MIC) of 0.8 mg/L (≈ 2.37 µM) and an MIC ([2]; clinical strain 59 (Table S2), read-out: MIC) of 0.8 mg/L (≈ 2.37 µM). It also gave an MIC ([2]; clinical strain 60 (Table S2), read-out: MIC) of 0.8 mg/L (≈ 2.37 µM), an MIC ([2]; clinical strain 61 (Table S2), read-out: MIC) of 0.8 mg/L (≈ 2.37 µM) and an MIC ([2]; clinical strain 62 (Table S2), read-out: MIC) of 0.8 mg/L (≈ 2.37 µM). It also gave an MIC ([2]; clinical strain 63 (Table S2), read-out: MIC) of 0.8 mg/L (≈ 2.37 µM), an MIC ([2]; clinical strain 64 (Table S2), read-out: MIC) of 0.8 mg/L (≈ 2.37 µM) and an MIC ([2]; clinical strain 65 (Table S2), read-out: MIC) of 0.8 mg/L (≈ 2.37 µM). The MIC ([2]; clinical strain 66 (Table S2), read-out: MIC) was 0.8 mg/L (≈ 2.37 µM), the MIC ([2]; clinical strain 67 (Table S2), read-out: MIC) was 1.6 mg/L (≈ 4.74 µM) and the MIC ([2]; clinical strain 68 (Table S2), read-out: MIC) was 1.6 mg/L (≈ 4.74 µM). The MIC ([2]; clinical strain 69 (Table S2), read-out: MIC) was 1.6 mg/L (≈ 4.74 µM), the MIC ([2]; clinical strain 70 (Table S2), read-out: MIC) was 1.6 mg/L (≈ 4.74 µM) and the MIC ([2]; clinical strain 71 (Table S2), read-out: MIC) was 1.6 mg/L (≈ 4.74 µM). For the same molecule, the MIC ([2]; clinical strain 72 (Table S2), read-out: MIC) was 1.6 mg/L (≈ 4.74 µM), the MIC ([2]; clinical strain 73 (Table S2), read-out: MIC) was 1.6 mg/L (≈ 4.74 µM) and the MIC ([2]; clinical strain 74 (Table S2), read-out: MIC) was 1.6 mg/L (≈ 4.74 µM). For the same molecule, the MIC ([2]; clinical strain 75 (Table S2), read-out: MIC) was 1.6 mg/L (≈ 4.74 µM), the MIC ([2]; clinical strain 76 (Table S2), read-out: MIC) was 1.6 mg/L (≈ 4.74 µM) and the MIC ([2]; clinical strain 77 (Table S2), read-out: MIC) was 1.6 mg/L (≈ 4.74 µM). It also gave an MIC ([2]; clinical strain 78 (Table S2), read-out: MIC) of 3.12 mg/L (≈ 9.26 µM), an MIC ([2]; clinical strain 79 (Table S2), read-out: MIC) of 12.5 mg/L (≈ 37.1 µM) and an MIC ([2]; clinical strain 80 (Table S2), read-out: MIC) of 25 mg/L (≈ 74.1 µM). For the same molecule, the MIC ([2]; clinical strain 81 (Table S2), read-out: MIC) was 50 mg/L (≈ 148 µM), the MIC ([2]; mean of MIC values against clinical MDR-SE isolates, read-out: mean MIC) was 2.3 mg/L (≈ 6.82 µM) and the MIC50 ([2]; 81 clinical strains, concentration inhibiting growth of 50% clinical isolates) was 0.8 mg/L (≈ 2.37 µM). For the same molecule, the MIC90 ([2]; 81 clinical strains, concentration inhibiting growth of 90% of clinical isolates) was 1.6 mg/L (≈ 4.74 µM).
